Data taken from patent US10405547B2, “Substituted cyclic amides as herbicides” (FMC Corporation, priority 2015, dated 2019).

Experiments:
Assay type in all cases: in vivo
[1] = tested on: barnyardgrass (Echinochloa crus-galli); assay: Test A preemergence, barnyardgrass; conditions: 0 to 100 scale (0 no effect, 100 complete control)
Summary of the method: (§1)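 Greenhouse assay; ~10 d; visual injury vs untreated control, scored 0 = no effect through 100 = complete control. Post-emergent seedlings at one–two leaves; pre-emergent seeds in loam/sand given a directed soil spray.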

[2] = tested on: foxtail, giant (Setaria faberii); assay: Test A preemergence, giant foxtail; conditions: 0 to 100 scale (0 no effect, 100 complete control)
Summary of the method: as §1

[3] = tested on: galium (catchweed bedstraw, Galium aparine); assay: Test A postemergence, galium; conditions: visual injury, 0 to 100 scale (0 no effect, 100 complete control), approximately 10 days
Summary of the method: as §1

[4] = tested on: foxtail, giant (Setaria faberii); assay: Test A postemergence, giant foxtail; conditions: visual injury, 0 to 100 scale (0 no effect, 100 complete control), approximately 10 days
Summary of the method: as §1

kochia (Kochia scoparia) [5] = assay: Test A postemergence, kochia; conditions: visual injury, 0 to 100 scale (0 no effect, 100 complete control), approximately 10 days
Summary of the method: as §1

[6] = tested on: pigweed (Amaranthus retroflexus); assay: Test A preemergence, pigweed; conditions: 0 to 100 scale (0 no effect, 100 complete control)
Summary of the method: as §1

[7] = tested on: barnyardgrass (Echinochloa crus-galli); assay: Test A postemergence, barnyardgrass; conditions: visual injury, 0 to 100 scale (0 no effect, 100 complete control), approximately 10 days
Summary of the method: as §1

rice (Oryza sativa) = assay: Test B flooded paddy test, rice; conditions: 250 g ai/ha, applied to paddy water, visual rating after 13 to 15 days, scale 0 (no effect) to 100 (complete control)
Summary of the method: (§2)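 Ratings were visual and made relative to untreated controls after 13 to 15 greenhouse days.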

[8] = tested on: wheat (Triticum aestivum); assay: Test A postemergence, wheat; conditions: visual injury, 0 to 100 scale (0 no effect, 100 complete control), approximately 10 days
Summary of the method: as §1

[9] = tested on: sedge, umbrella (small-flower umbrella sedge, Cyperus difformis); assay: Test B flooded paddy test, umbrella sedge; conditions: 250 g ai/ha, applied to paddy water, visual rating after 13 to 15 days, scale 0 (no effect) to 100 (complete control)
Summary of the method: as §2

[10] = tested on: ragweed (common ragweed, Ambrosia elatior); assay: Test A preemergence, ragweed; conditions: 0 to 100 scale (0 no effect, 100 complete control)
Summary of the method: as §1

corn (Zea mays) = assay: Test A postemergence, corn; conditions: visual injury, 0 to 100 scale (0 no effect, 100 complete control), approximately 10 days
Summary of the method: as §1

[11] = tested on: ryegrass, Italian (Lolium multiflorum); assay: Test A postemergence, Italian ryegrass; conditions: visual injury, 0 to 100 scale (0 no effect, 100 complete control), approximately 10 days
Summary of the method: as §1

[12] = tested on: ragweed (common ragweed, Ambrosia elatior); assay: Test A postemergence, ragweed; conditions: visual injury, 0 to 100 scale (0 no effect, 100 complete control), approximately 10 days
Summary of the method: as §1

[13] = tested on: pigweed (Amaranthus retroflexus); assay: Test A postemergence, pigweed; conditions: visual injury, 0 to 100 scale (0 no effect, 100 complete control), approximately 10 days
Summary of the method: as §1

[14] = tested on: barnyardgrass (Echinochloa crus-galli); assay: Test B flooded paddy test, barnyardgrass; conditions: 250 g ai/ha, applied to paddy water, visual rating after 13 to 15 days, scale 0 (no effect) to 100 (complete control)
Summary of the method: as §2

kochia (Kochia scoparia) [15] = assay: Test A preemergence, kochia; conditions: 0 to 100 scale (0 no effect, 100 complete control)
Summary of the method: as §1

[16] = tested on: blackgrass (Alopecurus myosuroides); assay: Test A postemergence, blackgrass; conditions: visual injury, 0 to 100 scale (0 no effect, 100 complete control), approximately 10 days
Summary of the method: as §1

[17] = tested on: ducksalad (Heteranthera limosa); assay: Test B flooded paddy test, ducksalad; conditions: 250 g ai/ha, applied to paddy water, visual rating after 13 to 15 days, scale 0 (no effect) to 100 (complete control)
Summary of the method: as §2

[18] = tested on: ryegrass, Italian (Lolium multiflorum); assay: Test A preemergence, Italian ryegrass; conditions: 0 to 100 scale (0 no effect, 100 complete control)
Summary of the method: as §1

| Compound | Plant response rating, Barnyardgrass ([1]; 125 g ai/ha) | Plant response rating, Barnyardgrass ([1]; 500 g ai/ha) | Plant response rating, Foxtail, Giant ([2]; 125 g ai/ha) | Plant response rating, Foxtail, Giant ([2]; 500 g ai/ha) | Plant response rating, Galium ([3]; 125 g ai/ha) | Plant response rating, Galium ([3]; 500 g ai/ha) | Plant response rating, Foxtail, Giant ([4]; 125 g ai/ha) | Plant response rating, Foxtail, Giant ([4]; 500 g ai/ha) | Plant response rating, Kochia (kochia (Kochia scoparia) [5]; 125 g ai/ha) | Plant response rating, Kochia (kochia (Kochia scoparia) [5]; 500 g ai/ha) | Plant response rating, Pigweed ([6]; 125 g ai/ha) | Plant response rating, Pigweed ([6]; 500 g ai/ha) | Plant response rating, Barnyardgrass ([7]; 125 g ai/ha) | Plant response rating, Barnyardgrass ([7]; 500 g ai/ha) | Plant response rating, Rice (Flood) (rice (Oryza sativa)) | Plant response rating, Wheat ([8]; 125 g ai/ha) | Plant response rating, Wheat ([8]; 500 g ai/ha) | Plant response rating, Sedge, Umbrella (Flood) [9] | Plant response rating, Ragweed ([10]; 125 g ai/ha) | Plant response rating, Ragweed ([10]; 500 g ai/ha) | also measured |
| --- | --- | --- | --- | --- | --- | --- | --- | --- | --- | --- | --- | --- | --- | --- | --- | --- | --- | --- | --- | --- | --- |
| CN1CC(c2cccc(OC(F)(F)C(F)OC(F)(F)F)c2)C(C(=O)Nc2ccccc2F)C1=O (stereo not drawn) [Compound 41] | 20 | 90 | 80 | 90 | 40 | 60 | 50 | 70 | 20 | 60 | 70 | 90 | 50 | 50 | 20 | 0 | 40 | 0 | 20 | 70 | Plant response rating, Corn (corn (Zea mays); 125 g ai/ha): 0; Plant response rating, Corn (corn (Zea mays); 500 g ai/ha): 40; Plant response rating, Ryegrass, Italian ([11]; 125 g ai/ha): 0; Plant response rating, Ryegrass, Italian ([11]; 500 g ai/ha): 20; Plant response rating, Ragweed ([12]; 125 g ai/ha): 0; Plant response rating, Ragweed ([12]; 500 g ai/ha): 0; Plant response rating, Pigweed ([13]; 125 g ai/ha): 40; Plant response rating, Pigweed ([13]; 500 g ai/ha): 80; Plant response rating, Barnyardgrass (Flood) [14]: 0; Plant response rating, Kochia (kochia (Kochia scoparia) [15]; 125 g ai/ha): 30; Plant response rating, Kochia (kochia (Kochia scoparia) [15]; 500 g ai/ha): 60; Plant response rating, Blackgrass ([16]; 125 g ai/ha): 0; Plant response rating, Blackgrass ([16]; 500 g ai/ha): 30; Plant response rating, Ducksalad (Flood) [17]: 100; Plant response rating, Ryegrass, Italian ([18]; 125 g ai/ha): 20; Plant response rating, Ryegrass, Italian ([18]; 500 g ai/ha): 60 |
| CN1CC(c2cccc(Oc3ccc(C(F)(F)F)cn3)c2)C(C(=O)Nc2ccccc2F)C1=O (single isomer, unassigned) [Compound 43] | 80 | 80 | 90 | 90 | 70 | 80 | 80 | 80 | 40 | 60 | 40 | 80 | 90 | 90 | 15 | 30 | 50 | 0 | 0 | 80 | Plant response rating, Corn (corn (Zea mays); 125 g ai/ha): 40; Plant response rating, Corn (corn (Zea mays); 500 g ai/ha): 80; Plant response rating, Ryegrass, Italian ([11]; 125 g ai/ha): 0; Plant response rating, Ryegrass, Italian ([11]; 500 g ai/ha): 30; Plant response rating, Ragweed ([12]; 125 g ai/ha): 0; Plant response rating, Ragweed ([12]; 500 g ai/ha): 0; Plant response rating, Pigweed ([13]; 125 g ai/ha): 30; Plant response rating, Pigweed ([13]; 500 g ai/ha): 50; Plant response rating, Barnyardgrass (Flood) [14]: 50; Plant response rating, Kochia (kochia (Kochia scoparia) [15]; 125 g ai/ha): 30; Plant response rating, Kochia (kochia (Kochia scoparia) [15]; 500 g ai/ha): 30; Plant response rating, Blackgrass ([16]; 125 g ai/ha): 30; Plant response rating, Blackgrass ([16]; 500 g ai/ha): 50; Plant response rating, Ducksalad (Flood) [17]: 98; Plant response rating, Ryegrass, Italian ([18]; 125 g ai/ha): 30; Plant response rating, Ryegrass, Italian ([18]; 500 g ai/ha): 80 |
| O=C1NCC(c2cccc(OCC3CC3)c2)C1C(=O)Nc1ccccc1Cl (stereo not drawn) [Compound 4] | 60 | 90 | 70 | 90 | 0 | 0 | 40 | 80 | 0 | 0 | 0 | 20 | 40 | 80 | 0 | 0 | 0 | 0 | 0 | 0 | Plant response rating, Corn (corn (Zea mays); 125 g ai/ha): 0; Plant response rating, Corn (corn (Zea mays); 500 g ai/ha): 0; Plant response rating, Ryegrass, Italian ([11]; 125 g ai/ha): 0; Plant response rating, Ryegrass, Italian ([11]; 500 g ai/ha): 40; Plant response rating, Ragweed ([12]; 125 g ai/ha): 0; Plant response rating, Ragweed ([12]; 500 g ai/ha): 40; Plant response rating, Pigweed ([13]; 125 g ai/ha): 0; Plant response rating, Pigweed ([13]; 500 g ai/ha): 30; Plant response rating, Barnyardgrass (Flood) [14]: 0; Plant response rating, Kochia (kochia (Kochia scoparia) [15]; 125 g ai/ha): 0; Plant response rating, Kochia (kochia (Kochia scoparia) [15]; 500 g ai/ha): 30; Plant response rating, Blackgrass ([16]; 125 g ai/ha): 0; Plant response rating, Blackgrass ([16]; 500 g ai/ha): 40; Plant response rating, Ducksalad (Flood) [17]: 0; Plant response rating, Ryegrass, Italian ([18]; 125 g ai/ha): 0; Plant response rating, Ryegrass, Italian ([18]; 500 g ai/ha): 20 |
| O=C1NCC(c2ccccc2Cn2ccc(C(F)(F)F)n2)C1C(=O)Nc1ccccc1F (stereo not drawn) [Compound 59] | 0 | 40 | 0 | 50 | 0 | 0 | 0 | 20 | 0 | 0 | 0 | 0 | 0 | 30 | 0 | 0 | 0 | 0 | 0 | 0 | Plant response rating, Corn (corn (Zea mays); 125 g ai/ha): 0; Plant response rating, Corn (corn (Zea mays); 500 g ai/ha): 0; Plant response rating, Ryegrass, Italian ([11]; 125 g ai/ha): 0; Plant response rating, Ryegrass, Italian ([11]; 500 g ai/ha): 0; Plant response rating, Ragweed ([12]; 125 g ai/ha): 0; Plant response rating, Ragweed ([12]; 500 g ai/ha): 0; Plant response rating, Pigweed ([13]; 125 g ai/ha): 0; Plant response rating, Pigweed ([13]; 500 g ai/ha): 0; Plant response rating, Barnyardgrass (Flood) [14]: 0; Plant response rating, Kochia (kochia (Kochia scoparia) [15]; 125 g ai/ha): 0; Plant response rating, Kochia (kochia (Kochia scoparia) [15]; 500 g ai/ha): 0; Plant response rating, Blackgrass ([16]; 125 g ai/ha): 0; Plant response rating, Blackgrass ([16]; 500 g ai/ha): 0; Plant response rating, Ducksalad (Flood) [17]: 0; Plant response rating, Ryegrass, Italian ([18]; 125 g ai/ha): 0; Plant response rating, Ryegrass, Italian ([18]; 500 g ai/ha): 0 |
